# From patent US20170334899A1, “AMINO-SUBSTITUTED ISOTHIAZOLES” (Bayer Pharma Aktiengesellschaft, priority 2014, published 2017)
# Tested on: HeLa
# Test: Proliferation assay (crystal violet), HeLa
# Assay type: cell-based
# Conditions: Homo sapiens, HeLa, 96 h, HeLa cells; 4 days incubation; crystal violet staining; read-out: IC50 inhibition of proliferation, HeLa
# Summary of the method: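 Absorbance at 595 nm of crystal-violet-stained cells after 4 days' exposure to 0.001–10 μM compound (0.5% DMSO). Values normalized to a day-0 plate (0%) and untreated cells (100%); IC50 by 4-parameter fit.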
row,IC50,SMILES
1,1300 nM,"Cc1nsc(Nc2cnc(C(F)(F)F)cn2)c1C(=O)Nc1ccc(OCCCNCCC(F)(F)F)nc1 [Example 294, 3-methyl-5-{[5-(trifluoromethyl)pyrazin-2-yl]amino}-N-(6-{3-[(3,3,3-trifluoropropyl)amino]propoxy}pyridin-3-yl)-1,2-thiazole-4-carboxamide]"
2,380 nM,"Cc1nsc(Nc2cnc(C(F)(F)F)cn2)c1C(=O)Nc1ccc(OC2CCN(CCF)C2)nc1 (stereo not drawn) [Example 295, N-(6-{[1-(2-fluoroethyl)pyrrolidin-3-yl]oxy}pyridin-3-yl)-3-methyl-5-{[5-(trifluoromethyl)pyrazin-2-yl]amino}-1,2-thiazole-4-carboxamide]"
3,600 nM,"Cc1nsc(Nc2cnc(C(F)(F)F)cn2)c1C(=O)Nc1ccc(OC2CCN(CC(F)F)C2)nc1 (stereo not drawn) [Example 296, N-(6-{[1-(2,2-difluoroethyl)pyrrolidin-3-yl]oxy}pyridin-3-yl)-3-methyl-5-{[5-(trifluoromethyl)pyrazin-2-yl]amino}-1,2-thiazole-4-carboxamide]"
4,350 nM,"Cc1nsc(Nc2cnc(C(F)(F)F)cn2)c1C(=O)Nc1ccc(OC2CCN(CC(F)(F)F)C2)nc1 (stereo not drawn) [Example 297, 3-methyl-N-(6-{[1-(2,2,2-trifluoroethyl)pyrrolidin-3-yl]oxy}pyridin-3-yl)-5-{[5-(trifluoromethyl)pyrazin-2-yl]amino}-1,2-thiazole-4-carboxamide]"
5,330 nM,"Cc1nsc(Nc2cnc(C(F)(F)F)cn2)c1C(=O)Nc1ccc(OC2CCN(CCC(F)(F)F)C2)nc1 (stereo not drawn) [Example 298, 3-methyl-5-{[5-(trifluoromethyl)pyrazin-2-yl]amino}-N-(6-{[1-(3,3,3-trifluoropropyl)pyrrolidin-3-yl]oxy}pyridin-3-yl)-1,2-thiazole-4-carboxamide]"
6,260 nM,"Cc1nsc(Nc2cnc(C(F)(F)F)cn2)c1C(=O)Nc1ccc(N(C)C)c(OCCCN(C)CC(F)(F)F)c1 [Example 299, N-[4-(dimethylamino)-3-{3-[methyl(2,2,2-trifluoroethyl)amino]propoxy}phenyl]-3-methyl-5-{[5-(trifluoromethyl)pyrazin-2-yl]amino}-1,2-thiazole-4-carboxamide]"
7,550 nM,"Cc1nsc(Nc2cnc(C(F)(F)F)cn2)c1C(=O)Nc1ccc(N(C)C)c(OCCCN(C)CCC(F)(F)F)c1 [Example 300, N-[4-(dimethylamino)-3-{3-[methyl(3,3,3-trifluoropropyl)amino]propoxy}phenyl]-3-methyl-5-{[5-(trifluoromethyl)pyrazin-2-yl]amino}-1,2-thiazole-4-carboxamide]"
8,360 nM,"Cc1nsc(Nc2cnc(C(F)(F)F)cn2)c1C(=O)Nc1ccc(F)c(OCCCN(C)CC(F)F)c1 [Example 301, N-(3-{3-[(2,2-difluoroethyl)(methyl)amino]propoxy}-4-fluorophenyl)-3-methyl-5-{[5-(trifluoromethyl)pyrazin-2-yl]amino}-1,2-thiazole-4-carboxamide]"
9,340 nM,"Cc1nsc(Nc2cnc(C(F)(F)F)cn2)c1C(=O)Nc1ccc(F)c(OCCCN(C)CC(F)(F)F)c1 [Example 302, N-(4-fluoro-3-{3-[methyl(2,2,2-trifluoroethyl)amino]propoxy}phenyl)-3-methyl-5-{[5-(trifluoromethyl)pyrazin-2-yl]amino}-1,2-thiazole-4-carboxamide]"
10,400 nM,"Cc1nsc(Nc2cnc(C(F)(F)F)cn2)c1C(=O)Nc1ccc(F)c(OCCCN(C)CCC(F)(F)F)c1 [Example 303, N-(4-fluoro-3-{3-[methyl(3,3,3-trifluoropropyl)amino]propoxy}phenyl)-3-methyl-5-{[5-(trifluoromethyl)pyrazin-2-yl]amino}-1,2-thiazole-4-carboxamide]"
11,360 nM,"Cc1nsc(Nc2cncc(C(F)(F)F)n2)c1C(=O)Nc1ccc(OC2CCN(CCC(F)(F)F)CC2)nc1 [Example 304, 3-methyl-5-{[6-(trifluoromethyl)pyrazin-2-yl]amino}-N-(6-{[1-(3,3,3-trifluoropropyl)piperidin-4-yl]oxy}pyridin-3-yl)-1,2-thiazole-4-carboxamide]"
12,1100 nM,"Cc1nsc(Nc2cnc(C(F)(F)F)cn2)c1C(=O)Nc1ccc(OCCNCC(F)F)nc1 [Example 305, N-(6-{2-[(2,2-difluoroethyl)amino]ethoxy}pyridin-3-yl)-3-methyl-5-{[5-(trifluoromethyl)pyrazin-2-yl]amino}-1,2-thiazole-4-carboxamide]"
13,570 nM,"Cc1nsc(Nc2cnc(C(F)(F)F)cn2)c1C(=O)Nc1ccc(F)c(OCCCNCC(F)(F)F)c1 [Example 306, N-(4-fluoro-3-{3-[(2,2,2-trifluoroethyl)amino]propoxy}phenyl)-3-methyl-5-{[5-(trifluoromethyl)pyrazin-2-yl]amino}-1,2-thiazole-4-carboxamide]"
14,690 nM,"Cc1nsc(Nc2cnc(C(F)(F)F)cn2)c1C(=O)Nc1ccc(F)c(OCCCNCCC(F)(F)F)c1 [Example 307, N-(4-fluoro-3-{3-[(3,3,3-trifluoropropyl)amino]propoxy}phenyl)-3-methyl-5-{[5-(trifluoromethyl)pyrazin-2-yl]amino}-1,2-thiazole-4-carboxamide]"
15,340 nM,"Cc1nsc(Nc2cnc(C(F)(F)F)cn2)c1C(=O)Nc1ccc(F)c(OCC2CCN(CC(F)F)CC2)c1 [Example 308, N-(3-{[1-(2,2-difluoroethyl)piperidin-4-yl]methoxy}-4-fluorophenyl)-3-methyl-5-{[5-(trifluoromethyl)pyrazin-2-yl]amino}-1,2-thiazole-4-carboxamide]"
16,630 nM,"Cc1nsc(Nc2cnc(C(F)(F)F)cn2)c1C(=O)Nc1ccc(F)c(OCC2CCN(CCF)CC2)c1 [Example 309, N-(4-fluoro-3-{[1-(2-fluoroethyl)piperidin-4-yl]methoxy}phenyl)-3-methyl-5-{[5-(trifluoromethyl)pyrazin-2-yl]amino}-1,2-thiazole-4-carboxamide]"
17,230 nM,"Cc1nsc(Nc2cnc(C(F)(F)F)cn2)c1C(=O)Nc1ccc(F)c(OCC2CCN(CC(F)(F)F)CC2)c1 [Example 310, N-(4-fluoro-3-{[1-(2,2,2-trifluoroethyl)piperidin-4-yl]methoxy}phenyl)-3-methyl-5-{[5-(trifluoromethyl)pyrazin-2-yl]amino}-1,2-thiazole-4-carboxamide]"
18,330 nM,"Cc1nsc(Nc2cnc(C(F)(F)F)cn2)c1C(=O)Nc1ccc(F)c(OCC2CCN(CCC(F)(F)F)CC2)c1 [Example 311, N-(4-fluoro-3-{[1-(3,3,3-trifluoropropyl)piperidin-4-yl]methoxy}phenyl)-3-methyl-5-{[5-(trifluoromethyl)pyrazin-2-yl]amino}-1,2-thiazole-4-carboxamide]"
19,420 nM,"Cc1nsc(Nc2cnc(C(F)(F)F)cn2)c1C(=O)Nc1ccc(F)c(OCC2CCN(C(CF)CF)CC2)c1 [Example 312, N-(3-{[1-(1,3-difluoropropan-2-yl)piperidin-4-yl]methoxy}-4-fluorophenyl)-3-methyl-5-{[5-(trifluoromethyl)pyrazin-2-yl]amino}-1,2-thiazole-4-carboxamide]"
20,620 nM,"Cc1nsc(Nc2cnc(C(F)(F)F)cn2)c1C(=O)Nc1ccc(OC2CCN(C(CF)CF)C2)nc1 (stereo not drawn) [Example 313, N-(6-{[1-(1,3-difluoropropan-2-yl)pyrrolidin-3-yl]oxy}pyridin-3-yl)-3-methyl-5-{[5-(trifluoromethyl)pyrazin-2-yl]amino}-1,2-thiazole-4-carboxamide]"
21,410 nM,"Cc1nsc(Nc2cnc(C(F)(F)F)cn2)c1C(=O)Nc1ccc(F)c(OC2CCN(CC(F)F)C2)c1 (stereo not drawn) [Example 314, N-(3-{[1-(2,2-difluoroethyl)pyrrolidin-3-yl]oxy}-4-fluorophenyl)-3-methyl-5-{[5-(trifluoromethyl)pyrazin-2-yl]amino}-1,2-thiazole-4-carboxamide]"
22,780 nM,"Cc1nsc(Nc2cnc(C(F)(F)F)cn2)c1C(=O)Nc1ccc(F)c(OC2CCN(CC(F)(F)F)C2)c1 (stereo not drawn) [Example 315, N-(4-fluoro-3-{[1-(2,2,2-trifluoroethyl)pyrrolidin-3-yl]oxy}phenyl)-3-methyl-5-{[5-(trifluoromethyl)pyrazin-2-yl]amino}-1,2-thiazole-4-carboxamide]"
23,430 nM,"Cc1nsc(Nc2cnc(C(F)(F)F)cn2)c1C(=O)Nc1ccc(F)c(OCC2CCN(CC(F)F)C2)c1 (stereo not drawn) [Example 316, N-(3-{[1-(2,2-difluoroethyl)pyrrolidin-3-yl]methoxy}-4-fluorophenyl)-3-methyl-5-{[5-(trifluoromethyl)pyrazin-2-yl]amino}-1,2-thiazole-4-carboxamide]"
24,450 nM,"Cc1nsc(Nc2cnc(C(F)(F)F)cn2)c1C(=O)Nc1ccc(F)c(OCC2CCN(CCF)C2)c1 (stereo not drawn) [Example 317, N-(4-fluoro-3-{[1-(2-fluoroethyl)pyrrolidin-3-yl]methoxy}phenyl)-3-methyl-5-{[5-(trifluoromethyl)pyrazin-2-yl]amino}-1,2-thiazole-4-carboxamide]"
25,680 nM,"Cc1nsc(Nc2cnc(C(F)(F)F)cn2)c1C(=O)Nc1ccc(F)c(OCC2CCN(C(CF)CF)C2)c1 (stereo not drawn) [Example 320, N-(3-{[1-(1,3-difluoropropan-2-yl)pyrrolidin-3-yl]methoxy}-4-fluorophenyl)-3-methyl-5-{[5-(trifluoromethyl)pyrazin-2-yl]amino}-1,2-thiazole-4-carboxamide]"
26,3400 nM,"Cc1nsc(Nc2cnc(C(F)(F)F)cn2)c1C(=O)Nc1ccc(OCCNCCF)nc1 [Example 321, N-(6-{2-[(2-fluoroethyl)amino]ethoxy}pyridin-3-yl)-3-methyl-5-{[5-(trifluoromethyl)pyrazin-2-yl]amino}-1,2-thiazole-4-carboxamide]"
27,690 nM,"Cc1nsc(Nc2cnc(C(F)(F)F)cn2)c1C(=O)Nc1ccc(OCCNCC(F)(F)F)nc1 [Example 322, 3-methyl-N-(6-{2-[(2,2,2-trifluoroethyl)amino]ethoxy}pyridin-3-yl)-5-{[5-(trifluoromethyl)pyrazin-2-yl]amino}-1,2-thiazole-4-carboxamide]"
